Experimental data published in paper PMC2980575 (Analytical biochemistry, 2010).

How the values were obtained:
HDAC8 [1] = target: T1, HDAC8 (Homo sapiens, UniProt Q9BY41); assay: Trypsin-coupled steady-state kinetic assay with Fluor de Lys substrate; assay type: biochemical
T1 sequence (Q9BY41 1-377): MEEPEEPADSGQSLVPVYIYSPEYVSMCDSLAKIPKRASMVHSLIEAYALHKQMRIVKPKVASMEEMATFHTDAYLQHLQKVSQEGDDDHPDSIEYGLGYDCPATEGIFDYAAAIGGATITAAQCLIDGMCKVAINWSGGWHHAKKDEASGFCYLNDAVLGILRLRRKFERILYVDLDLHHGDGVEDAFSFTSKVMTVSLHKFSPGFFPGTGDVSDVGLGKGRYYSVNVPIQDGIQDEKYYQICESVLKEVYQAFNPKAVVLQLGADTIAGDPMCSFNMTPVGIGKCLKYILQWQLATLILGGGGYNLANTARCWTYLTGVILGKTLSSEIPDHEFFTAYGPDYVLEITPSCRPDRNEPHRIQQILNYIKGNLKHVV

HDAC8 [2] = target: T1, HDAC8; assay: Stopped-flow transient kinetics, c-SAHA as competitive ligand; assay type: binding; settings: pH 7.5, read-out: koff (dissociation off-rate)
HDAC8 [3] = target: T1, HDAC8; assay: Fluorescence displacement method with c-SAHA as probe, Dynafit analysis
HDAC8 [4] = target: T1, HDAC8; assay: Direct fluorescence titration of c-SAHA with HDAC8; assay type: binding

Structure (SMILES) | Ki (HDAC8 [1]) | koff (HDAC8 [2]) | Kd (HDAC8 [3]) | Ki of c-SAHA lower than that of parent compound SAHA (HDAC8 [1]; steady-state kinetic data, c-SAHA versus SAHA) | Kd (HDAC8 [4])
CN(C)c1ccc(C(=O)NCCCCCCC(=O)NO)cc1 [M344, 4-Dimethylamino-N-(6-hydroxycarbamoylhexyl)-benzamide] | 180 ± 20 nM | 1.05 ± 0.12 s⁻¹ | 320 ± 90 nM |  | 
Cc1cc(=O)oc2cc(NC(=O)CCCCCCC(=O)NO)ccc12 [c-SAHA, N^1-hydroxy-N^8-(4-methyl-2-oxo-2H-chromen-7-yl)octanediamide] | 160 nM |  |  | about 5 fold | 160 ± 20 nM
